In the supplement of paper PMC10307832:

Compound: CCN(CCO)CCCC(C)Nc1ccnc2cc(Cl)ccc12 [Hydroxychloroquine]
Assay: relative viability (nuclei count vs DMSO), 5 days (fraction); higher = more cells survive
Summary of the method: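 Viability here means nuclei in treated wells divided by nuclei in vehicle wells, reported as the median across plates. Only plates with control CV below 25% and at least one doubling passed. Lung cancer cell lines in 1536-well plates were exposed to five √10-spaced library-drug doses for 5 days and counted from 4× Hoechst images in MetaXpress.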

| Cell Line | relative viability (0.5 µM) | relative viability (1.581 µM) | relative viability (5 µM) | relative viability (15.81 µM) | relative viability (50 µM) |
| --- | --- | --- | --- | --- | --- |
| 201T | 0.965 | 0.974 | 0.968 | 0.981 | 1.04 |
| A549 | 1.01 | 0.945 | 1.03 | 0.928 | 1.08 |
| A-427 | 0.995 | 0.945 | 0.964 | 1 | 0.968 |
| ABC-1 | 0.89 | 0.854 | 0.856 | 0.885 | 0.91 |
| BEN | 1.04 | 0.894 | 0.977 | 1.06 | 1.07 |
| CAL-12T | 1.01 | 0.973 | 0.957 | 0.979 | 1.02 |
| COR-L23 | 1.06 | 1.17 | 1.16 | 1.08 | 1.03 |
| COR-L 105 | 0.875 | 0.935 | 0.876 | 0.804 | 0.864 |
| Calu-6 | 1.04 | 1.03 | 1 | 1.1 | 1 |
| ChaGo-K-1 | 0.958 | 1.07 | 0.911 | 1.01 | 1.03 |
| EBC-1 | 1.01 | 0.897 | 1.05 | 0.973 | 1.13 |
| EKVX | 0.962 | 0.902 | 0.893 | 1.02 | 1.01 |
| EMC-BAC-2 | 1.05 | 0.824 | 0.953 | 1.02 | 0.912 |
| EPLC-272H | 0.963 | 0.843 | 0.98 | 0.94 | 1.08 |
| H3255 | 0.982 | 0.946 | 0.974 | 0.951 | 0.951 |
| HARA | 1.23 | 0.938 | 0.876 | 1 | 0.903 |
| HCC-15 | 1.08 | 0.956 | 1.04 | 1.06 | 1.04 |
| HCC-44 | 1.04 | 0.996 | 1.01 | 1.01 | 1.04 |
| HCC-78 | 1.04 | 0.903 | 1.03 | 1.01 | 0.94 |
| HCC-366 | 1.01 | 0.981 | 0.986 | 1.06 | 1.03 |
| HCC-827 | 1.03 | 1.02 | 1.04 | 1.02 | 1.06 |
| HOP-62 | 1.04 | 1.01 | 1.05 | 1.08 | 1.08 |
| IA-LM | 0.922 | 0.971 | 0.902 | 0.962 | 0.959 |
| LC-2-ad | 1 | 0.982 | 0.996 | 0.998 | 1.02 |
| LCLC-97TM1 | 1.14 | 1.06 | 1.03 | 0.944 | 0.946 |
| LCLC-103H | 1.01 | 0.932 | 0.998 | 1 | 1.01 |
| LK-2 | 1.01 | 0.96 | 0.941 | 1.14 | 1.24 |

| Cell Line | relative viability (0.5 µM) | relative viability (1.581 µM) | relative viability (5 µM) | relative viability (15.81 µM) | relative viability (50 µM) |
| --- | --- | --- | --- | --- | --- |
| LOU-NH91 | 0.96 | 0.794 | 0.944 | 0.95 | 0.901 |
| LU99A | 1.01 | 0.874 | 0.938 | 0.951 | 1.02 |
| LXF-289 | 1.06 | 1.01 | 1.03 | 1.02 | 1.07 |
| NCI-H23 | 1.04 | 0.809 | 0.961 | 0.915 | 1.01 |
| NCI-H322M | 0.955 | 0.933 | 0.957 | 0.935 | 0.983 |
| NCI-H358 | 0.851 | 0.884 | 0.88 | 0.888 | 0.877 |
| NCI-H441 | 1.05 | 0.926 | 1.33 | 1.13 | 1.03 |
| NCI-H460 | 0.973 | 1 | 1.01 | 1.03 | 1.11 |
| NCI-H520 | 1.07 | 1.01 | 0.906 | 0.923 | 1.07 |
| NCI-H522 | 1.01 | 0.844 | 0.95 | 0.836 | 0.954 |
| NCI-H596 | 1.04 | 0.934 | 0.892 | 1.03 | 1.15 |
| NCI-H647 | 1 | 1.07 | 0.894 | 0.816 | 0.975 |
| NCI-H650 | 1 | 0.896 | 0.741 | 1.04 | 0.955 |
| NCI-H661 | 0.966 | 0.93 | 0.921 | 0.976 | 0.994 |
| NCI-H727 | 1.04 | 0.815 | 1.04 | 0.898 | 0.911 |
| NCI-H838 | 1.02 | 0.958 | 0.984 | 0.975 | 1.12 |
| NCI-H1299 | 1.02 | 0.938 | 1.01 | 1.02 | 1.02 |
| NCI-H1355 | 1.04 | 0.956 | 1 | 0.983 | 1.05 |
| NCI-H1395 | 0.887 | 0.847 | 0.81 | 0.83 | 0.854 |
| NCI-H1437 | 0.994 | 1 | 0.926 | 0.997 | 1.04 |
| NCI-H1563 | 0.946 | 0.744 | 0.912 | 0.99 | 0.966 |
| NCI-H1648 | 0.817 | 1.09 | 0.775 | 0.992 | 0.825 |
| NCI-H1650 | 0.956 | 1.08 | 0.857 | 0.806 | 0.903 |
| NCI-H1651 | 0.974 | 0.981 | 1 | 1.01 | 1.1 |
| NCI-H1666 | 0.986 | 0.944 | 1.01 | 0.966 | 0.952 |
| NCI-H1703 | 0.912 | 0.79 | 0.946 | 0.924 | 0.898 |
| NCI-H1734 | 0.918 | 0.869 | 0.989 | 0.942 | 1.02 |

| Cell Line | relative viability (0.5 µM) | relative viability (1.581 µM) | relative viability (5 µM) | relative viability (15.81 µM) | relative viability (50 µM) |
| --- | --- | --- | --- | --- | --- |
| NCI-H1755 | 1.05 | 0.899 | 0.928 | 0.99 | 0.941 |
| NCI-H1792 | 0.945 | 1.03 | 0.859 | 0.783 | 0.776 |
| NCI-H1793 | 1.03 | 0.791 | 0.916 | 0.866 | 0.998 |
| NCI-H1915 | 0.961 | 1.01 | 0.981 | 1.01 | 1.06 |
| NCI-H1944 | 0.983 | 0.966 | 0.925 | 0.919 | 0.994 |
| NCI-H1975 | 0.973 | 0.977 | 0.91 | 1 | 1.06 |
| NCI-H1993 | 0.974 | 0.842 | 0.939 | 0.883 | 1.02 |
| NCI-H2009 | 0.979 | 1.04 | 1.06 | 0.994 | 1.07 |
| NCI-H2023 | 1 | 1.03 | 0.941 | 0.981 | 1.13 |
| NCI-H2085 | 1 | 0.859 | 0.964 | 0.977 | 0.989 |
| NCI-H2087 | 0.971 | 0.923 | 1 | 1.06 | 0.98 |
| NCI-H2126 | 1.02 | 0.967 | 0.974 | 0.992 | 1.06 |
| NCI-H2170 | 0.969 | 1.15 | 0.992 | 0.995 | 1.15 |
| NCI-H2228 | 1.05 | 0.959 | 0.945 | 1.11 | 1.08 |
| NCI-H2342 | 0.986 | 0.897 | 0.987 | 0.991 | 1.13 |
| NCI-H2347 | 1.1 | 0.935 | 1.04 | 0.965 | 1.03 |
| NCI-H2405 | 1.03 | 0.955 | 0.968 | 1 | 1.01 |
| NCI-H3122 | 0.999 | 0.997 | 0.99 | 1.05 | 1.06 |
| PC-3 [JPC-3] | 1.01 | 1.08 | 0.957 | 1.06 | 1.02 |
| PC-14 | 1.03 | 0.961 | 0.956 | 1.05 | 1.01 |
| RERF-LC-KJ | 0.937 | 0.978 | 0.99 | 0.939 | 1.05 |
| SK-LU-1 | 1.19 | 0.983 | 0.949 | 1.03 | 1.08 |
| SK-MES-1 | 1.06 | 0.959 | 1.07 | 1.05 | 0.995 |
| SW 900 | 0.879 | 0.729 | 0.837 | 0.717 | 0.889 |
| SW 1573 | 0.918 | 0.832 | 0.983 | 1.07 | 1.02 |
| UMC-11 | 0.988 | 0.849 | 1.01 | 1.05 | 1.12 |
